Laboratory results reported in patent US4480118A, “Carboxylic acid ester and an insecticidal and/or acaricidal composition containing the same” (priority 1981, dated 1984).
Values after ≈ are worked out from the molar mass of the structure shown. Where two headings read alike, the source gives them in different places.

Key:
housefly [1] = test: Insecticidal activity against housefly (Filter paper bait and contact method); format: in vivo; details: 500 ppm, 48 hours, adult female houseflies; for mortality at 500 ppm: Musca domestica, read-out: Mortality
Protocol: Each 20 parts of the present compounds No. 1 to No. 29, 10 parts of an emulsifier (Sorpol 3005X; trademark for Toho Chemical Co.) and 70 parts of xylene are thoroughly mixed by stirring to obtain an emulsifiable concentrate of each compound.
A piece of filter paper, 5.5 cm in diameter, was laid on the bottom of a polyethylene cup of the identical inner diameter. An emulsifiable concentrate prepared in the same manner as in Preparation Example 2 was diluted with water. To the filter paper, was added dropwise 0.7 ml of the diluted sample (500 ppm in concentration). Sucrose (30 mg) was placed on the filter paper to serve as bait. Ten adult female houseflies were released into the cup, closed with a cover, and observed for the number of dead and alive insects after 48 hours to calculate the mortality (2 replications).

housefly [2] = test: Insecticidal activity against housefly (Topical application method); format: in vivo; details: dorsal thorax, adult female, 24 hours
Protocol: The present compounds and the reference compounds were diluted with acetone to prescribed concentrations. Each 0.5 μl of the diluted samples was applied topically with a microsyringe onto the dorsal thorax of an adult female housefly. The flies were fed and observed for the number of dead and alive insects after 24 hours. LD50 (median lethal dose) was calculated from the mortalities at each dosage by probit method.

housefly [3] = test: Activity of oil spray against adult housefly (glass chamber); format: in vivo; details: oil spray 0.5 ml, 10 minutes exposure; for mortality, House fly: observed on the following day, 1440 min
Protocol: (§1) 0.1 Part of each compound Nos. 10, 12, 15, 17, 18, 19, 22, 23 and 29 of this invention is dissolved in deodorized kerosene and made up to 100 parts with kerosene to obtain an oil spray.
(§2) Ten adult houseflies and ten adult female northern house mosquitos were released in a glass chamber, 70×70×70 cm in size. An oil spray preparation (0.5 ml) obtained in Preparation Example 1 was sprayed inside the chamber and the insects were exposed to the descending mist for 10 minutes, during which time the number of knocked-down insects was counted at predetermined time intervals to determine the 50% knockdown time (KT50). On the following day, the dead and alive insects were observed.

northern house mosquito = test: Activity of oil spray against adult female northern house mosquito (glass chamber); format: in vivo; details: for mortality, Northern house mosquito: in vivo, 24 h; for KT50 (50% knockdown time), Northern house mosquito: oil spray 0.5 ml, 10 minutes exposure
Protocol: as §1, §2

tobacco cutworm = test: Insecticidal activity against tobacco cutworm; format: in vivo; details: 24 h; for LC50: read-out: LC50 (median lethal concentration), treated artificial diet, third-instar larvae, 24 hours
Protocol: An artificial diet (15 g) for tobacco cutworm was wet with 2 ml of the prescribed aqueous dilution of an emulsifiable concentrate obtained in Preparation Example 2 or of that obtained from reference compounds. The diet thus treated was placed in a polyethylene cup of 11 cm in diameter.

green rice leafhopper = test: Insecticidal activity against green rice leafhopper; details: Nephotettix cincticeps, 24 h
[4] = read-out: Percent mortality days after spraying: 0
[5] = read-out: Percent mortality days after spraying: 3
[6] = read-out: Percent mortality days after spraying: 7

SMILES: CC1(C)[C@@H](C(=O)OC(C#N)c2cccc(Oc3ccccc3)c2)[C@]12Cc1ccccc1O2 (relative stereo) [Compound 17]
- mortality at 500 ppm (housefly [1]): 100%
- LD50 (median lethal dose) (housefly [2]): 0.064 μg/female
- KT50 (50% knockdown time), House fly (housefly [3]): 264 s
- mortality, House fly (housefly [3]): 80%
- mortality, Northern house mosquito (northern house mosquito): 100%
- KT50 (50% knockdown time), Northern house mosquito (northern house mosquito): 330 s

SMILES: CC1(C)[C@@H](C(=O)OC(C#N)c2cccc(Oc3ccccc3)c2)[C@@]12Cc1ccccc1O2 (relative stereo) [Compound 18]
- mortality at 500 ppm (housefly [1]): 100%
- LD50 (median lethal dose) (housefly [2]): 0.0061 μg/female
- LC50 (tobacco cutworm): 1.8 µg/mL (≈ 4.23 µM)
- KT50 (50% knockdown time), House fly (housefly [3]): 600 s
- mortality, House fly (housefly [3]): 10%
- mortality, Northern house mosquito (northern house mosquito): 100%
- KT50 (50% knockdown time), Northern house mosquito (northern house mosquito): 456 s

SMILES: CC1(C)C(C(=O)OC(C#N)c2cccc(Oc3ccccc3)c2)C12Cc1c(F)c(F)c(F)c(F)c1C2 (stereo not drawn) [Compound 1]
- mortality at 500 ppm (housefly [1]): 100%
- LD50 (median lethal dose) (housefly [2]): 0.0052 μg/female
- LC50 (tobacco cutworm): 3.5 µg/mL (≈ 7.06 µM)
- mortality at 50 ppm (green rice leafhopper; [4]): 100%
- mortality at 50 ppm (green rice leafhopper; [5]): 100%
- mortality at 50 ppm (green rice leafhopper; [6]): 86%

SMILES: CC1(C)C(C(=O)OC(C#N)c2cccc(Oc3ccccc3)c2)C12Cc1ccccc1C2 (stereo not drawn) [Compound 2]
- mortality at 500 ppm (housefly [1]): 100%
- LD50 (median lethal dose) (housefly [2]): 0.0045 μg/female
- LC50 (tobacco cutworm): 2 µg/mL (≈ 4.72 µM)
- mortality at 50 ppm (green rice leafhopper; [4]): 100%
- mortality at 50 ppm (green rice leafhopper; [5]): 100%
- mortality at 50 ppm (green rice leafhopper; [6]): 100%

SMILES: CC1(C)C(C(=O)OC(C#N)c2cccc(Oc3ccccc3)c2)C12Cc1ccc(Cl)cc1C2 (stereo not drawn) [Compound 3]
- mortality at 500 ppm (housefly [1]): 100%
- LD50 (median lethal dose) (housefly [2]): 0.0076 μg/female
- LC50 (tobacco cutworm): 3.3 µg/mL (≈ 7.21 µM)
- mortality at 50 ppm (green rice leafhopper; [4]): 100%
- mortality at 50 ppm (green rice leafhopper; [5]): 100%
- mortality at 50 ppm (green rice leafhopper; [6]): 100%

SMILES: CC1(C)C(C(=O)OC(C#N)c2cccc(Oc3ccccc3)c2)C12Cc1ccc(F)cc1C2 (stereo not drawn) [Compound 4]
- mortality at 500 ppm (housefly [1]): 100%
- LD50 (median lethal dose) (housefly [2]): 0.0042 μg/female
- LC50 (tobacco cutworm): 1 µg/mL (≈ 2.26 µM)

SMILES: CC1(C)C(C(=O)OC(C#N)c2cccc(Oc3ccccc3)c2)C12Cc1ccc(Br)cc1C2 (stereo not drawn) [Compound 5]
- mortality at 500 ppm (housefly [1]): 100%
- LD50 (median lethal dose) (housefly [2]): 0.018 μg/female
- LC50 (tobacco cutworm): 7.2 µg/mL (≈ 14.3 µM)
- mortality at 50 ppm (green rice leafhopper; [4]): 100%
- mortality at 50 ppm (green rice leafhopper; [5]): 100%
- mortality at 50 ppm (green rice leafhopper; [6]): 100%

SMILES: CC1(C)C(C(=O)OC(C#N)c2cccc(Oc3ccccc3)c2)C12Cc1cccc(F)c1C2 (stereo not drawn) [Compound 6]
- mortality at 500 ppm (housefly [1]): 100%

SMILES: CC1(C)C(C(=O)OC(C#N)c2ccc(F)c(Oc3ccccc3)c2)C12Cc1ccccc1C2 (stereo not drawn) [Compound 7]
- mortality at 500 ppm (housefly [1]): 100%
- LD50 (median lethal dose) (housefly [2]): 0.0044 μg/female
- LC50 (tobacco cutworm): 1.8 µg/mL (≈ 4.08 µM)
- mortality at 50 ppm (green rice leafhopper; [4]): 100%
- mortality at 50 ppm (green rice leafhopper; [5]): 100%
- mortality at 50 ppm (green rice leafhopper; [6]): 100%

SMILES: CC1(C)C(C(=O)O[C@H](C#N)c2cccc(Oc3ccccc3)c2)C12Cc1ccccc1C2 (stereo partly drawn) [Compound 8]
- mortality at 500 ppm (housefly [1]): 100%
- LD50 (median lethal dose) (housefly [2]): 0.0032 μg/female
- LC50 (tobacco cutworm): 1.1 µg/mL (≈ 2.6 µM)

SMILES: CC1(C)C(C(=O)O[C@H](C#N)c2cccc(Oc3ccccc3)c2)C12Cc1ccccc1C2 (stereo partly drawn) [Compound 9]
- Mortality (housefly [1]): 100%
- LD50 (median lethal dose) (housefly [2]): 0.0013 μg/female
- LC50 (median lethal concentration) (tobacco cutworm; tobacco cutworm, in vivo): 0.6 ppm

SMILES: CC1(C)C(C(=O)OCc2coc(Cc3ccccc3)c2)C12Cc1ccccc1C2 (stereo not drawn) [Compound 11]
- mortality at 500 ppm (housefly [1]): 100%
- LD50 (median lethal dose) (housefly [2]): 0.023 μg/female

SMILES: CC1(C)C(C(=O)OCN2C(=O)C3=C(CCCC3)C2=O)C12Cc1ccccc1C2 (stereo not drawn) [Compound 12]
- mortality at 500 ppm (housefly [1]): 100%
- KT50 (50% knockdown time), House fly (housefly [3]): 125 s
- mortality, House fly (housefly [3]): 10%
- mortality, Northern house mosquito (northern house mosquito): 95%
- KT50 (50% knockdown time), Northern house mosquito (northern house mosquito): 400 s

SMILES: CC1(C)C(C(=O)OCc2cccc(Cc3ccccc3)c2)C12Cc1ccccc1C2 (stereo not drawn) [Compound 13]
- mortality at 500 ppm (housefly [1]): 100%
- mortality at 50 ppm (green rice leafhopper; [4]): 100%
- mortality at 50 ppm (green rice leafhopper; [5]): 93%
- mortality at 50 ppm (green rice leafhopper; [6]): 100%

SMILES: C#CC(OC(=O)C1C(C)(C)C12Cc1ccccc1C2)C(C)=CCC (stereo not drawn) [Compound 14]
- mortality at 500 ppm (housefly [1]): 100%

SMILES: CC1(C)C(C(=O)OC(C#N)c2cccc(Oc3ccc(Br)cc3)c2)C12Cc1ccccc1C2 (stereo not drawn) [Compound 16]
- mortality at 500 ppm (housefly [1]): 100%
- mortality at 50 ppm (green rice leafhopper; [4]): 100%
- mortality at 50 ppm (green rice leafhopper; [5]): 100%
- mortality at 50 ppm (green rice leafhopper; [6]): 97%
